Like-named read-outs stand apart in the source and are kept apart here.
What was measured:
KPC-2 (K. pneumoniae) = KPC-2 (K. pneumoniae) (Klebsiella pneumoniae, UniProt Q9F663); assay: biochemical
AmpC (P. aeruginosa) = AmpC (P. aeruginosa) (Pseudomonas aeruginosa (strain ATCC 15692 / DSM 22644 / CIP 104116 / JCM 14847 / LMG 12228 / 1C / PRS 101 / PAO1), UniProt P24735); assay: biochemical
Experimental: The Class C enzyme activities were measured in the presence of the test inhibitor in spectrophotometric assay against the commercially available substrate, nitrocefin. The enzyme AmpC (P. aeruginosa.), and the substrate, were dissolved in 100 mM KH2PO4 buffer (pH 7). The buffer also contains 0.005% BSA. The test inhibitor was dissolved in DMSO and diluted 1:20 in the assay, resulting in a final concentration range of 50 μM to 0.0002 μM. In a 96-well microplate, the test inhibitor was incubated with the beta-lactamase enzyme for 40 minutes at ambient temperature, the substrate solution was added, and the incubation continued for another 40 minutes. […] The IC50 value was determined from semi logarithmic plots of enzyme inhibition versus inhibitor concentration, with a curve generated using a 4-parameter fit.

[1] = Table 3, read-out: K.p. KPC-2 IC50
[2] = Table 3, read-out: P.a. AmpC IC50

AmpC (P. aeruginosa), sequence (P24735 27-397): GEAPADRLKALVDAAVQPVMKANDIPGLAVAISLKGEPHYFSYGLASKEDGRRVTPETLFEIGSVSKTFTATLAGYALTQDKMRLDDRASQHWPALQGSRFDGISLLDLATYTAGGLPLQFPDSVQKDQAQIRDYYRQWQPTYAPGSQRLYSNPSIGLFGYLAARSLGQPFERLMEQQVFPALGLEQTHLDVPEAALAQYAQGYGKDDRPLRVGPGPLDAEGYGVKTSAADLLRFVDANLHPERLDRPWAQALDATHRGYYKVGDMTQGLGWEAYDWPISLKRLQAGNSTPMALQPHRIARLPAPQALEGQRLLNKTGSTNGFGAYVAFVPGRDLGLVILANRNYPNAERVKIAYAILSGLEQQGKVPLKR
KPC-2 (K. pneumoniae), sequence (Q9F663 25-293 limits assumed): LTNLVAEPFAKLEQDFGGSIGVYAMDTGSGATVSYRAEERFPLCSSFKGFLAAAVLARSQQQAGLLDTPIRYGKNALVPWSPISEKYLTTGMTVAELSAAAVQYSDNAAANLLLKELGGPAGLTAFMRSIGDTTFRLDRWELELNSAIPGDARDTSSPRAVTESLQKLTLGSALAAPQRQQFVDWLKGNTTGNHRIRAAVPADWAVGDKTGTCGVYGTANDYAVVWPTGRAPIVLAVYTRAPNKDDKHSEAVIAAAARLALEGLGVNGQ

| SMILES | IC50 (KPC-2 (K. pneumoniae); [1]) | IC50 (AmpC (P. aeruginosa); [2]) | IC50 (KPC-2 (K. pneumoniae); K.p. KPC-2 IC50, Table 3) | IC50 (AmpC (P. aeruginosa)) |
| --- | --- | --- | --- | --- |
| CNCc1ccc(NC(=O)[C@@H]2CC[C@@H]3CN2C(=O)N3OS(=O)(=O)O)cc1 [Example 60] | 56 nM | 18 nM |  |  |
| NC(=O)c1ccc(NC(=O)[C@@H]2CC[C@@H]3CN2C(=O)N3OS(=O)(=O)O)cc1 [Example 68] | 30 nM | 7 nM |  |  |
| Cn1ccnc1NC(=O)[C@@H]1CC[C@@H]2CN1C(=O)N2OS(=O)(=O)O [Example 86] | 135 nM | 240 nM |  |  |
| O=C(NCCC1CCNCC1)[C@@H]1CC[C@@H]2CN1C(=O)N2OS(=O)(=O)O [Example 44] | 45 nM | 11 nM |  |  |
| O=C(NC1CCCNC1)[C@@H]1CC[C@@H]2CN1C(=O)N2OS(=O)(=O)O (single isomer, unassigned) [Example 19b] | 240 nM | 480 nM |  |  |
| CN(C(=O)[C@@H]1CC[C@@H]2CN1C(=O)N2OS(=O)(=O)O)C1CCNCC1 [Example 48] | 2500 nM | 290 nM |  |  |
| O=C(NC[C@@H]1CNCCCO1)[C@@H]1CC[C@@H]2CN1C(=O)N2OS(=O)(=O)O [Example 42] |  |  | 110 nM | 100 nM |
| O=C(O[C@H]1CCNC[C@H]1F)[C@@H]1CC[C@@H]2CN1C(=O)N2OS(=O)(=O)O [Example 98] | 9 nM | 46 nM |  |  |
| O=C(N[C@H]1CCNC[C@@H]1F)[C@@H]1CC[C@@H]2CN1C(=O)N2OS(=O)(=O)O [Example 24] | 90 nM |  |  | 110 nM |
| CN(C)c1ccnc(NC(=O)[C@@H]2CC[C@@H]3CN2C(=O)N3OS(=O)(=O)O)c1 [Example 75] | 410 nM | 3 nM |  |  |
| O=C(O[C@@H]1CCCNCC1)[C@@H]1CC[C@@H]2CN1C(=O)N2OS(=O)(=O)O [Example 92] | 6400 nM | 33000 nM |  |  |
| NS(=O)(=O)c1ccc(NC(=O)[C@@H]2CC[C@@H]3CN2C(=O)N3OS(=O)(=O)O)cc1 [Example 69] | 22 nM | 7 nM |  |  |
| O=C([C@@H]1CC[C@@H]2CN1C(=O)N2OS(=O)(=O)O)N1CC2(CCNCC2)C1 [Example 52] | 1000 nM |  |  | 590 nM |
| O=C(NC(CO)C1CCNCC1)[C@@H]1CC[C@@H]2CN1C(=O)N2OS(=O)(=O)O (stereo partly drawn) [Example 41] | 320 nM |  |  | 700 nM |
| O=C(NCC1CCNCC1)[C@@H]1CC[C@@H]2CN1C(=O)N2OS(=O)(=O)O [Example 40] |  | 30 nM | 77 nM |  |
| O=C(Nc1ccccn1)[C@@H]1CC[C@@H]2CN1C(=O)N2OS(=O)(=O)O [Example 72] | 36 nM | 1.2 nM |  |  |
| CNCc1cccc(NC(=O)[C@@H]2CC[C@@H]3CN2C(=O)N3OS(=O)(=O)O)c1 [Example 61] | 78 nM |  |  | 22 nM |
| O=C(O[C@@H]1CNC[C@H]1F)[C@@H]1CC[C@@H]2CN1C(=O)N2OS(=O)(=O)O [Example 105] | 13 nM |  |  | 200 nM |
| O=C(O[C@@H]1CCNC[C@H]1F)[C@@H]1CC[C@@H]2CN1C(=O)N2OS(=O)(=O)O [Example 99] | 8 nM | 40 nM |  |  |

| SMILES | IC50 (KPC-2 (K. pneumoniae); [1]) | IC50 (AmpC (P. aeruginosa); [2]) | IC50 (KPC-2 (K. pneumoniae); K.p. KPC-2 IC50, Table 3) | IC50 (AmpC (P. aeruginosa)) |
| --- | --- | --- | --- | --- |
| O=C(N[C@@H]1CCNC[C@@H]1F)[C@@H]1CC[C@@H]2CN1C(=O)N2OS(=O)(=O)O [Example 25] | 270 nM |  |  | 20 nM |
| NCc1cccc(NC(=O)[C@@H]2CC[C@@H]3CN2C(=O)N3OS(=O)(=O)O)c1 [Example 58] | 104 nM |  |  | 34 nM |
| O=C(NCC1CCCN1)[C@@H]1CC[C@@H]2CN1C(=O)N2OS(=O)(=O)O (stereo partly drawn) [Example 38] | 120 nM | 250 nM |  |  |
| O=C([C@@H]1CC[C@@H]2CN1C(=O)N2OS(=O)(=O)O)N1CC2CNCC2C1 (stereo partly drawn) [Example 53] | 33 nM |  |  | 1000 nM |
| O=C(OC1CCNCC1)[C@@H]1CC[C@@H]2CN1C(=O)N2OS(=O)(=O)O [Example 93] | 9 nM |  |  | 170 nM |
| CN(C)C1CCN(C(=O)[C@@H]2CC[C@@H]3CN2C(=O)N3OS(=O)(=O)O)C1 (stereo partly drawn) [Example 56] | 1600 nM | 270 nM |  |  |
| O=C(N[C@@H]1CNC[C@@H]1F)[C@@H]1CC[C@@H]2CN1C(=O)N2OS(=O)(=O)O [Example 31] |  |  | 190 nM | 150 nM |
| O=C(Nc1ccc(N2CCOCC2)cn1)[C@@H]1CC[C@@H]2CN1C(=O)N2OS(=O)(=O)O [Example 81] | 17 nM | 5 nM |  |  |
| O=C(N[C@@H]1CCCNCC1)[C@@H]1CC[C@@H]2CN1C(=O)N2OS(=O)(=O)O [Example 22] | 225 nM |  |  | 520 nM |
| CN(C)Cc1ccc(NC(=O)[C@@H]2CC[C@@H]3CN2C(=O)N3OS(=O)(=O)O)cc1 [Example 62] | 54 nM | 18 nM |  |  |
| CC1(COC(=O)[C@@H]2CC[C@@H]3CN2C(=O)N3OS(=O)(=O)O)CCNCC1 [Example 113] | 8 nM | 36 nM |  |  |
| O=C(N[C@@H]1CCN(C2CCNCC2)C1=O)[C@@H]1CC[C@@H]2CN1C(=O)N2OS(=O)(=O)O [Example 34] | 280 nM |  |  | 45 nM |
| O=C(Nc1ccc(N2CCCC2)cn1)[C@@H]1CC[C@@H]2CN1C(=O)N2OS(=O)(=O)O [Example 82] | 10 nM | 4 nM |  |  |
| O=C(O[C@H]1CCNC[C@@H]1F)[C@@H]1CC[C@@H]2CN1C(=O)N2OS(=O)(=O)O [Example 100] | 4 nM | 33 nM |  |  |
| O=C(OCCN1CCCCC1)[C@@H]1CC[C@@H]2CN1C(=O)N2OS(=O)(=O)O [Example 111] | 20 nM | 1200 nM |  |  |
| N[C@@H]1CNC[C@H]1NC(=O)[C@@H]1CC[C@@H]2CN1C(=O)N2OS(=O)(=O)O [Example 28] | 660 nM | 740 nM |  |  |
| O=C(O[C@H]1CNCC[C@@H]1F)[C@@H]1CC[C@@H]2CN1C(=O)N2OS(=O)(=O)O [Example 101] | 15 nM |  |  | 81 nM |
| O=C(Nc1cc(N2CCCC2)nc(N2CCCC2)c1)[C@@H]1CC[C@@H]2CN1C(=O)N2OS(=O)(=O)O [Example 73] | 130 nM | 515 nM |  |  |
| NCc1ccc(NC(=O)[C@@H]2CC[C@@H]3CN2C(=O)N3OS(=O)(=O)O)cc1 [Example 57] | 72 nM | 20 nM |  |  |

| SMILES | IC50 (KPC-2 (K. pneumoniae); [1]) | IC50 (AmpC (P. aeruginosa); [2]) | IC50 (KPC-2 (K. pneumoniae); K.p. KPC-2 IC50, Table 3) | IC50 (AmpC (P. aeruginosa)) |
| --- | --- | --- | --- | --- |
| NC1CCN(C(=O)[C@@H]2CC[C@@H]3CN2C(=O)N3OS(=O)(=O)O)CC1 [Example 50] | 8 nM | 820 nM |  |  |
| CN1CCC(NC(=O)[C@@H]2CC[C@@H]3CN2C(=O)N3OS(=O)(=O)O)CC1 [Example 23] | 240 nM | 500 nM |  |  |
| O=C(Nc1cccnc1)[C@@H]1CC[C@@H]2CN1C(=O)N2OS(=O)(=O)O [Example 71] | 42 nM |  |  | 37 nM |
| O=C(N[C@@H]1CCCNC[C@@H]1F)[C@@H]1CC[C@@H]2CN1C(=O)N2OS(=O)(=O)O [Example 35] | 150 nM | 13 nM |  |  |
| NC(=O)c1cccc(NC(=O)[C@@H]2CC[C@@H]3CN2C(=O)N3OS(=O)(=O)O)c1 [Example 70] | 26 nM |  |  | 3 nM |
| O=C(N[C@H]1CNC[C@H]1F)[C@@H]1CC[C@@H]2CN1C(=O)N2OS(=O)(=O)O [Example 32] |  |  | 710 nM | 19 nM |
| NCCOC(=O)[C@@H]1CC[C@@H]2CN1C(=O)N2OS(=O)(=O)O [Example 110] | 30 nM | 610 nM |  |  |
| O=C(O[C@@H]1CNOC1)[C@@H]1CC[C@@H]2CN1C(=O)N2OS(=O)(=O)O [Example 108] | 11 nM | 62 nM |  |  |
| O=C(Nc1ccc(N2CCNCC2)cn1)[C@@H]1CC[C@@H]2CN1C(=O)N2OS(=O)(=O)O [Example 80] | 15 nM | 2 nM |  |  |
| O=C(NC1C2CNCC21)[C@@H]1CC[C@@H]2CN1C(=O)N2OS(=O)(=O)O (stereo partly drawn) [Example 47] | 10000 nM | 720 nM |  |  |
| O=C(Nc1ccc2c(c1)CCN2)[C@@H]1CC[C@@H]2CN1C(=O)N2OS(=O)(=O)O [Example 66] | 41 nM | 56 nM |  |  |
| CC(=O)Oc1ccc(C(=O)NCCOC(=O)[C@@H]2CC[C@@H]3CN2C(=O)N3OS(=O)(=O)O)cc1OC(C)=O [Example 116] | 70 nM | 440 nM |  |  |
| O=C(N[C@H]1CCNC[C@H]1F)[C@@H]1CC[C@@H]2CN1C(=O)N2OS(=O)(=O)O [Example 15, (2S,5R)—N-[(3R,4S)-3-Fluoropiperidin-4-yl]-7-oxo-6-(sulfooxy)-1,6-diazabicyclo[3.2.1]octane-2-carboxamide] | 130 nM |  |  | 49 nM |
| Nc1cccc(NC(=O)[C@@H]2CC[C@@H]3CN2C(=O)N3OS(=O)(=O)O)n1 [Example 74] | 11 nM | 8 nM |  |  |
| O=C(Nc1cc(C2CCNCC2)ccn1)[C@@H]1CC[C@@H]2CN1C(=O)N2OS(=O)(=O)O [Example 78] | 470 nM | 0.8 nM |  |  |
| O=C(NCCN1CCCCC1)[C@@H]1CC[C@@H]2CN1C(=O)N2OS(=O)(=O)O [Example 45] | 150 nM | 180 nM |  |  |
| O=C(NC1CCS(=O)(=O)CC1)[C@@H]1CC[C@@H]2CN1C(=O)N2OS(=O)(=O)O [Example 27] | 150 nM | 9.5 nM |  |  |
| O=C(O[C@H]1CNCC[C@H]1F)[C@@H]1CC[C@@H]2CN1C(=O)N2OS(=O)(=O)O [Example 102] | 4 nM |  |  | 76 nM |
| O=C(O[C@H]1CNC[C@H]1F)[C@@H]1CC[C@@H]2CN1C(=O)N2OS(=O)(=O)O [Example 104] | 24 nM |  |  | 38 nM |
